Results: patent US20230204587A1, “NOVEL DIAGNOSTIC MARKER FOR PROSTATE CANCER” (URTESTE S.A., priority 2020, published 2023)
Starred links: 1 amine or outer side, 2 acyl side, 3 side chain; linkers in the order of their positions; H or OH if unused. Non-standard residues stand in square brackets, D forms with d. No end group written: not given here. *: point of attachment. Benzoyl(5-NH,2-NO2) = O=C(c1cc(N[*:1])ccc1[N+](=O)[O-])[*:2]; pNA = O=[N+]([O-])c1ccc(N*)cc1; 2Abz = Nc1ccccc1C(=O)O

What was measured:
[1] = system: proteolytic enzymes in urine; experiment: Chromogenic substrate hydrolysis in urine samples (absorbance at 405 nm, 96-well plate); type: biochemical, human; settings: for rate of hydrolysis of substrate (increase in absorbance over time): 200 mM Tris-HCl pH 8.0, 37° C., 60 minutes, 405 nm
Experimental: The study on the application of new compounds was performed on a group of 25 patients diagnosed with prostate cancer. For this purpose, the compound with formula: ABZ-Trp-Glu-Gly-Asn-ANB-NH2 or ABZ-Trp-Glu-Gly-Asn-pNA was dissolved in dimethyl sulfoxide (at a concentration of 0.5 mg/mL); 50 μL of this solution was mixed with 120 μl buffer (200 mM Tris-HCl, pH 8.0) and 80 μL of urine of a person with prostate cancer. The measurement was made in a 96-well plate designed for measuring absorbance, and each sample was analysed in triplicate at 37° C. The duration of the measurement was 60 minutes. During the measurement, the wavelength characteristic of the released chromophore (ANB-NH2 or pNA) was monitored at 405 nm (range 380-430 nm).

[2] = system: proteolytic enzymes in urine; experiment: RP HPLC analysis of substrate hydrolysis in urine from a person diagnosed with prostate cancer; type: biochemical, human; settings: randomly selected urine from a person diagnosed with prostate cancer
Experimental: A: ABZ-Trp-Glu-Gly-Asn-ANB-NH2 substrate in 200 mM Tris-HCl buffer, pH 8.0. B: Hydrolysis of ABZ-Trp-Glu-Gly-Asn-pNA substrate in urine of patients diagnosed with prostate cancer.

ABZ-Trp-Glu-Gly-Asn-ANB-NH2 ([2Abz]WEGN-{Benzoyl(5-NH,2-NO2)-NH2}) [Compound 1, chromogenic peptide; ABZ is 2-aminobenzoic acid, ANB-NH2 is amide of 5-amino-2-nitrobenzoic acid]
rate of hydrolysis of substrate (increase in absorbance over time) ([1]; urine from healthy individuals): does not lead to an increase in absorbance
absorbance increase on incubation with urine from various kinds of malignancies ([1]; urine from pancreas, liver, bowel, lung, bile duct, stomach and prostate cancer patients): absorbance increase is observed only for urine of patient diagnosed with prostate cancer
rate of hydrolysis of substrate (increase in absorbance over time) ([1]; urine of patients diagnosed with prostate cancer (samples 1-25)): all samples 1-25 disintegrated
hydrolysis products by RP HPLC [2]: break down into the ABZ-Trp-Glu-Gly-Asn-OH peptide fragment and chromophore

ABZ-Trp-Glu-Gly-Asn-pNA ([2Abz]WEGN-pNA) [Compound 2, chromogenic peptide; ABZ is 2-aminobenzoic acid, pNA is para-nitroaniline]
hydrolysis products by RP HPLC [2]: break down into the ABZ-Trp-Glu-Gly-Asn-OH peptide fragment and chromophore
